Source: US11512128B2, “VEGF/DLL4 binding agents and uses thereof” (MEREO BIOPHARMA 5, INC., priority 2011, dated 2022)

Tests used:
OMP-C8 colon tumor cells = experiment: Tumor growth in human skin graft model; assay type: in vivo, NOD-SCID mice; conditions: 25 mg/kg intraperitoneally once a week
Description: FIG. 5. Inhibition of colon tumor growth in vivo by an anti-VEGF/anti-DLL4 bispecific antibody. OMP-C8 colon tumor cells were injected subcutaneously into a human skin graft in NOD/SCID mice. Mice were treated with control antibody (-▪-), anti-hDLL4 antibody 21M18 (-▴-), anti-VEGF antibody bevacizumab (-∘-), or anti-VEGF/anti-DLL4 bispecific antibody 219R45-MB-21M18 (-▾-). Data is shown as tumor volume (photons/sec) over days post-treatment. Antibodies were administered intraperitoneally at a dose of 25 mg/kg once a week.
A human skin graft model has been reported which comprises a human skin graft and human tumor cells. A human skin graft is established and then human tumor cells are implanted into the skin graft, allowing the tumor cells to grow in an environment with human stroma and vasculature (Tahtis et al., 2003, Mol. Cancer Ther. 2:[…]). Human skin samples were obtained from neonatal foreskin tissue and grafted onto the lateral flank of NOD-SCID mice. After establishment of the skin graft, luciferase-labeled OMP-C8 colon tumor cells (20,000 cells) were injected intradermally into the human skin. Tumor growth was monitored by bioluminescence imaging using an IVIS imaging system (Caliper Life Sciences, Mountain View, Calif.). Tumors were allowed to grow until they reached 1.2×10^6 photons per second. Tumor-bearing mice (n=6 mice/group) were randomized and treated with control Ab, anti-hDLL4 antibody 21M18, anti-VEGF antibody bevacizumab, or anti-VEGF/anti-DLL4 bispecific antibody 219R45-MB-21M18. Animals were treated once a week and antibodies were administered intraperitoneally at a dose of 25 mg/kg. Tumor growth was monitored by bioluminescence imaging on the indicated days.

[1] = system: OMP-PN8 pancreatic tumor cells; experiment: Tumorigenicity of OMP-PN8 pancreatic tumor cells after treatment (serial transplantation); assay type: in vivo, NOD/SCID mice; conditions: 90 cells from treated tumors transplanted, day 55, no treatment; 21M18, bevacizumab 15 mg/kg, bispecifics 30 mg/kg, gemcitabine 70 mg/kg, four weeks
Description: FIG. 6. Tumorigenicity of pancreatic tumor cells after treatment with anti-VEGF/anti-DLL4 bispecific antibodies. OMP-PN8 tumor cells from mice treated with control antibody, anti-hDLL4 antibody 21M18, anti-VEGF antibody bevacizumab, or anti-VEGF/anti-DLL4 bispecific antibodies 219R45-MB-21M18 or 219R45-MB-21R79 with or without gemcitabine were processed to single cell suspensions, and serially transplanted into mice. 90 cells from each treatment group were injected subcutaneously into NOD/SCID mice. Tumors were allowed to grow with no treatment. Data is shown as tumor volume (mm^3) on day 55. Tumor frequency is shown as number of tumors over total number of mice injected in each group.
Mice bearing OMP-PN8 pancreatic tumors were treated with control antibody (15 mg/kg), anti-hDLL4 antibody 21M18 (15 mg/kg), anti-VEGF antibody bevacizumab (15 mg/kg), or anti-VEGF/anti-DLL4 bispecific antibodies 219R45-MB-21M18 or 219R45-MB-21R79 (30 mg/kg) with or without gemcitabine (70 mg/kg). Following four weeks of treatment, tumors were harvested, processed to single cell suspensions and the human tumor cells were purified by immunomagnetic depletion of murine cells. 90 human tumor cells from each treatment group were transferred to a new cohort of mice (n=10 mice/group). Tumors were allowed to grow for 55 days without any treatment and tumor volumes were measured with electronic calipers.

OMP-C8 colon tumor [2] = experiment: Tumorigenicity of OMP-C8 colon tumors after treatment (serial transplantation); assay type: in vivo, NOD/SCID mice; conditions: 150 cells from treated tumors transplanted, day 68; without irinotecan combination
Description: FIG. 10. Tumorigenicity of […] colon tumor cells after treatment with anti-VEGF/anti-DLL4 bispecific antibodies. Tumors from mice treated with control antibody, anti-hDLL4 antibody 21M18, anti-VEGF antibody bevacizumab, a combination of 21M18 and bevacizumab, or anti-VEGF/anti-DLL4 bispecific antibodies 219R45-MB-21M18 or 219R45-MB-21R79 with or without irinotecan were processed to single cell suspensions, and serially transplanted into mice. 150 cells from each treatment group were injected subcutaneously into NOD/SCID mice. Tumors were allowed to grow with no treatment. Data are shown as tumor volume (mm^3) on day 68.
Single cell suspensions of OMP-C8 colon tumor xenografts (20,000 cells) were injected subcutaneously into the flanks of 6-8 week old NOD/SCID mice. Tumors were allowed to grow for 33 days until they reached an average volume of 300 mm^3. The mice were randomized (n=5 per group) and treated with anti-DLL4 antibody 21M18, anti-VEGF antibody bevacizumab, a combination of antibodies 21M18 and bevacizumab, anti-VEGF/anti-DLL4 bispecific antibody 219R45-MB-21M18, anti-VEGF/anti-DLL4 bispecific antibody 219R45-MB-21R79, or control antibody, either in combination with irinotecan or without irinotecan. Antibodies and irinotecan were dosed weekly by injection into the intraperitoneal cavity. Antibodies 21M18 and bevacizumab were dosed at 7.5 mg/kg, bispecific antibodies 219R45-MB-21M18 and 219R45-MB-21R79 were dosed at 15 mg/kg, and irinotecan was dosed at 45 mg/kg. Tumors were harvested after 4 weeks, processed into single cell suspensions, and the human tumor cells were isolated. 150 tumor cells from each experimental group were injected subcutaneously into a new cohort of mice (n=10 per group) and tumors were allowed to grow without treatment. Tumor growth was monitored and tumor volumes were measured with electronic calipers.

OMP-C8 colon tumor [3] = experiment: OMP-C8 colon tumor growth in vivo; parameters: species or system NOD/SCID mice
Description: FIGS. 11A and 11B. Inhibition of colon tumor growth in vivo by anti-VEGF/anti-DLL4 bispecific antibodies. OMP-C8 colon tumor cells were injected subcutaneously into NOD/SCID mice. Mice were treated with control antibody (-▪-), anti-VEGF antibody bevacizumab (-▴-), or anti-VEGF/anti-DLL4 bispecific antibodies 219R45-MB-21M18 (-⋄-), 219R45-MB-21R75 (-●-), 219R45-MB-21R79 (-∘-), or 219R45-MB-21R83 (-▾-). Mice were treated with antibodies as single agents (FIG. 11A) or in combination with irinotecan (FIG. 11B). Antibodies were administered intraperitoneally at a dose of 15 mg/kg once a week and irinotecan at a dose of 7.5 mg/kg one a week. Data are shown as tumor volume (mm^3) over days post-treatment.
Single cell suspensions of OMP-C8 colon tumor xenografts (50,000 cells) were injected subcutaneously into the flanks of 6-8 week old NOD/SCID mice. Tumors were allowed to grow for 21 days until they reached an average volume of 80 mm^3. The mice were randomized (n=8 per group) and treated with anti-DLL4 antibody 21M18, anti-VEGF antibody bevacizumab, anti-VEGF/anti-DLL4 bispecific antibodies 219R45-MB-21M18, 219R45-MB-21R75, 219R45-MB-21R79, 219R45-MB-21R83, or control antibody, either alone or in combination with irinotecan. Antibodies and irinotecan were dosed weekly by injection into the intraperitoneal cavity. Bevacizumab and bispecific antibodies 219R45-MB-21M18, 219R45-MB-21R75, 219R45-MB-21R79, and 219R45-MB-21R83 were dosed at 15 mg/kg, and irinotecan was dosed at 7.5 mg/kg. Tumor growth was monitored and tumor volumes were measured with electronic calipers at the indicated time points. Data are expressed as mean±S.E.M.
Following the treatment phase, tumor sections were prepared and analyzed by hematoxylin and eosin (H&E) staining. […] This is characteristic of highly necrotic tumor tissue.

bevacizumab [reference compound]
inhibition of tumor growth (bioluminescence) (OMP-C8 colon tumor cells): inhibited tumor growth
tumor growth frequency (mice with tumors) [1]: 10 out of 10
tumor growth frequency, single agents (OMP-C8 colon tumor [2]): had no effect on tumor growth frequency

CCc1c2c(nc3ccc(OC(=O)N4CCC(N5CCCCC5)CC4)cc13)-c1cc3c(c(=O)n1C2)COC(=O)[C@]3(O)CC [irinotecan, reference compound]
tumor growth frequency, single agents (OMP-C8 colon tumor [2]): reduced tumor growth frequency

Nc1ccn([C@@H]2O[C@H](CO)[C@@H](O)C2(F)F)c(=O)n1 [gemcitabine, reference compound]
tumor growth frequency (mice with tumors) [1]: 10 out of 10

B1: 219R45-MB-21R83: anti-VEGF/anti-DLL4 monovalent/bispecific antibody, heavy chains SEQ ID NO:7 and 62, light chains SEQ ID NO:8 (antibody)
heavy 1: QVQLVQSGAEVKKPGASVKVSCKASGYTFTNYWMHWVRQAPGQGLEWMGDINPSNGRTSYKEKFKRRVTLSVDKSSSTAYMELSSLRSEDTAVYFCTIHYDDKYYPLMDYWGQGTLVTVSSASTKGPSVFPLAPCSRSTSESTAALGCLVKDYFPEPVTVSWNSGALTSGVHTFPAVLQSSGLYSLSSVVTVPSSNFGTQTYTCNVDHKPSNTKVDKTVERKCCVECPPCPAPPVAGPSVFLFPPKPKDTLMISRTPEVTCVVVDVSHEDPEVQFNWYVDGVEVHNAKTKPREEQFNSTFRVVSVLTVVHQDWLNGKEYKCKVSNKGLPAPIEKTISKTKGQPREPQVYTLPPSREKMTKNQVSLTCLVKGFYPSDIAVEWESNGQPENNYKTTPPMLKSDGSFFLYSKLTVDKSRWQQGNVFSCSVMHEALHNHYTQKSLSLSPGK
heavy 2: QVQLVQSGAEVKKPGASVKISCKASGYSFTAYYIHWVKQAPGQGLEWIGYISNYNRATNYNQKFKGRVTFTTDTSTSTAYMELRSLRSDDTAVYYCARDYDYDVGMDYWGQGTLVTVSSASTKGPSVFPLAPCSRSTSESTAALGCLVKDYFPEPVTVSWNSGALTSGVHTFPAVLQSSGLYSLSSVVTVPSSNFGTQTYTCNVDHKPSNTKVDKTVERKCCVECPPCPAPPVAGPSVFLFPPKPKDTLMISRTPEVTCVVVDVSHEDPEVQFNWYVDGVEVHNAKTKPREEQFNSTFRVVSVLTVVHQDWLNGKEYKCKVSNKGLPAPIEKTISKTKGQPREPQVYTLPPSREEMTKNQVSLTCLVEGFYPSDIAVEWESNGQPENNYKTTPPMLDSDGSFFLYSELTVDKSRWQQGNVFSCSVMHEALHNHYTQKSLSLSPGK
light: DIVMTQSPDSLAVSLGERATISCRASESVDNYGISFMKWFQQKPGQPPKLLIYAASNQGSGVPDRFSGSGSGTDFTLTISSLQAEDVAVYYCQQSKEVPWTFGGGTKVEIKRTVAAPSVIFPPSDEQLKSGTASVVCLLNNFYPREAKVQWKVDNALQSGNSQESVTEQDSKDSTYSLSSTLTLSKADYEKHKVYACEVTHQGLSSPVTKSFNRGEC
modifications: 21R79 Heavy chain without predicted signal sequence; 21R83 Heavy chain without signal sequence; Light chain without predicted signal sequence
inhibition of tumor growth in combination with irinotecan (OMP-C8 colon tumor [3]; antibody 15 mg/kg, irinotecan 7.5 mg/kg weekly ip): greatest inhibition of tumor growth
H&E staining of tumor sections after treatment (OMP-C8 colon tumor [3]; in combination with irinotecan): dark pink staining regions providing evidence of extensive calcification
